Measured values as given in PMC10331583, “Control of fibrosis with enhanced safety via asymmetric inhibition of prolyl‐tRNA synthetase 1” (EMBO Molecular Medicine, 2023).
Where “and” joins values, the source holds several entries; their conditions need not be identical. Identical values can stand only once. Like-named read-outs stand apart in the source and are kept apart here.

What was measured:
[1] = tested on: TNT Quick Coupled Transcription/Translation System (luciferase synthesis); assay type: biochemical
[2] = tested on: WI‐26 VA4 cells; assay: Puromycin incorporation assay; assay type: cell-based, human; details: for activity at 0.1 µM: WI26VA4, 100 nM; for activity at 0.3 µM: WI26VA4, 300 nM; for activity at 1 µM: WI26VA4, 1000 nM; for activity at 3 µM: WI26VA4, 3000 nM; for activity at 5 µM: WI26VA4, 5000 nM; for activity at 10 µM: WI26VA4, 10000 nM
Description: After being rinsed with cold PBS twice, the cells were collected and resuspended in 200 μl of the carbonate bicarbonate buffer (Sigma Aldrich, C3041‐50CAP) with protease inhibitor. The cell lysates were obtained by sonication and centrifugation at 20,000 g for 15 min at 4°C. After protein quantification using a Pierce™ BCA Protein Assay Kit (Thermo Fisher Scientific, 23225), 400 ng of the proteins was coated to ELISA plates for 18 h at 4°C. […] The plates were rinsed with the washing buffer for three times after each antibody incubation step. […] The amount of puromycin incorporated in proteins was determined by measuring the absorbance at 450 nm (reference wavelength at 620 nm). Experimental values marked in red with strikethrough text in the Figure Source Data file were excluded from the analysis. These values were determined by considering the values of biological and technical replicates under the same condition, as well as the values at the former and later chemical concentrations.

[3] = Homo sapiens, read-out: Puromycin, % of control, average
[4] = Homo sapiens, read-out: Puromycin, % of control, single replicate

Cc1c(Cl)ccc2c1ncn2CC(=O)C[C@H]1NCCC[C@@H]1O [DWN11748]
TNT-luciferase % of control ([1]; 20 nM, Experiment #1, replicates, 0.02 µM): 124.31 % of control and 118.51 % of control and 107.73 % of control
TNT-luciferase % of control ([1]; 20 nM, Experiment #2, replicates, 0.02 µM): 122.22 % of control and 112.59 % of control and 102.96 % of control
TNT-luciferase % of control, average ([1]; 20 nM): 114.72 % of control
TNT-luciferase % of control ([1]; 60 nM, Experiment #1, replicates, 0.06 µM): 118.51 % of control and 116.02 % of control and 106.08 % of control
TNT-luciferase % of control ([1]; 60 nM, Experiment #2, replicates, 0.06 µM): 117.78 % of control and 113.33 % of control and 103.70 % of control
TNT-luciferase % of control, average ([1]; 60 nM): 112.57 % of control
TNT-luciferase % of control ([1]; 200 nM, Experiment #1, replicates, 0.2 µM): 119.34 % of control and 112.71 % of control and 116.02 % of control
TNT-luciferase % of control ([1]; 200 nM, Experiment #2, replicates, 0.2 µM): 136.30 % of control and 122.22 % of control and 131.11 % of control
TNT-luciferase % of control, average ([1]; 200 nM): 122.95 % of control
TNT-luciferase % of control ([1]; 600 nM, Experiment #1, replicates, 0.6 µM): 122.65 % of control and 113.54 % of control and 107.73 % of control
TNT-luciferase % of control ([1]; 600 nM, Experiment #2, replicates, 0.6 µM): 109.63 % of control and 101.48 % of control and 108.89 % of control
TNT-luciferase % of control, average ([1]; 600 nM): 110.65 % of control
TNT-luciferase % of control ([1]; 2000 nM, Experiment #1, replicates, 2 µM): 77.24 % of control and 79.06 % of control and 67.79 % of control
TNT-luciferase % of control ([1]; 2000 nM, Experiment #2, replicates, 2 µM): 73.56 % of control and 76.30 % of control and 68.37 % of control
TNT-luciferase % of control, average ([1]; 2000 nM): 73.72 % of control
TNT-luciferase % of control ([1]; 6000 nM, Experiment #1, replicates, 6 µM): 17.73 % of control and 16.82 % of control and 16.99 % of control
TNT-luciferase % of control ([1]; 6000 nM, Experiment #2, replicates, 6 µM): 12.15 % of control and 12.07 % of control and 13.19 % of control
TNT-luciferase % of control, average ([1]; 6000 nM): 14.83 % of control
TNT-luciferase % of control ([1]; 20000 nM, Experiment #1, replicates, 20 µM): 0.54 % of control and 0.58 % of control and 0.61 % of control
TNT-luciferase % of control ([1]; 20000 nM, Experiment #2, replicates, 20 µM): 0.11 % of control and 0.0948 % of control and 0.12 % of control
TNT-luciferase % of control, average ([1]; 20000 nM): 0.35 % of control
TNT-luciferase % of control ([1]; 60000 nM, Experiment #1, replicates, 60 µM): 0.02 % of control (2×) and 0.0164 % of control
TNT-luciferase % of control ([1]; 60000 nM, Experiment #2, replicates, 60 µM): 0.000642 % of control and -0.00528 % of control and -0.00499 % of control
TNT-luciferase % of control, average ([1]; 60000 nM): 0.00775 % of control
TNT-luciferase % of control ([1]; 200000 nM, Experiment #1, replicates, 200 µM): 0.00754 % of control and 0.000331 % of control and -0.000994 % of control
TNT-luciferase % of control ([1]; 200000 nM, Experiment #2, replicates, 200 µM): 0.0019 % of control and 0.00487 % of control and -0.000321 % of control
TNT-luciferase % of control, average ([1]; 200000 nM): 0.00222 % of control
TNT-luciferase LogIC50 (best-fit value) ([1]; log(inhibitor) vs. response, variable slope (four parameters), concentration in nM): 3.407
IC50 ([1]; log(inhibitor) vs. response, variable slope (four parameters), unit from head concentration (nM), read-out: TNT-luciferase IC50 (best-fit value)): 2550 nM
Puromycin, % of control, single replicate ([2]; 300 nM, 0.3 µM): 100.32 % of control and 98.22 % of control and 104.21 % of control and 104.56 % of control and 103.89 % of control and 104.45 % of control and 100.10 % of control and 97.92 % of control
Puromycin, % of control, single replicate ([2]; 1000 nM, 1 µM): 97.71 % of control and 98.10 % of control and 102.31 % of control and 107.16 % of control and 101.57 % of control and 105.82 % of control and 108.83 % of control
Puromycin, % of control, single replicate ([2]; 3000 nM, 3 µM): 32.63 % of control
Puromycin, % of control, single replicate ([2]; 5000 nM, 5 µM): 22.79 % of control and 22.67 % of control and 25.49 % of control and 25.64 % of control and 24.99 % of control and 25.25 % of control and 25.95 % of control and 25.31 % of control
Puromycin, % of control, single replicate ([2]; 10000 nM, 10 µM): 12.21 % of control and 11.47 % of control and 15.58 % of control and 13.74 % of control and 13.61 % of control and 15.33 % of control and 15.25 % of control and 13.38 % of control
Puromycin, % of control, single replicate ([2]; 100000 nM, 100 µM): 0.86 % of control and 1.09 % of control and 0.96 % of control and 0.69 % of control and 0.0546 % of control and 1.21 % of control and 1.52 % of control and 1.41 % of control and 1.00 % of control
activity at 0.1 µM [2, 3]: 106%
activity at 0.1 µM [2, 4]: 113%
activity at 0.3 µM [2, 3]: 102%
activity at 0.3 µM [2, 4]: 102%
activity at 1 µM [2, 3]: 103%
activity at 1 µM [2, 4]: 101%
activity at 3 µM [2, 3]: 31.2%
activity at 3 µM [2, 4]: 29.7%
activity at 5 µM [2, 3]: 24.6%
activity at 5 µM [2, 4]: 23.1%
activity at 10 µM [2, 3]: 13.7%
activity at 10 µM [2, 4]: 12.4%
activity at 30 µM ([2]; Homo sapiens, WI26VA4, 30000 nM, read-out: Puromycin, % of control, average): 1.05%
activity at 100 µM ([2]; Homo sapiens, WI26VA4, 100000 nM, read-out: Puromycin, % of control, average): 0.98%
IC50 ([2]; Homo sapiens, WI26VA4, log(inhibitor) vs. response, variable slope (four parameters), read-out: Puromycin, IC50 (best-fit value)): 2680 nM
Puromycin, HillSlope (best-fit value) ([2]; log(inhibitor) vs. response, variable slope (four parameters)): -2.365
